Source: patent US9273058B2 (BRISTOL-MYERS SQUIBB COMPANY, priority 2013, dated 2016)
Like-named read-outs stand apart in the source and are kept apart here.

Legend:
CK1ε = CK1ε (Homo sapiens, UniProt P49674); test: CK1ε kinase assay (Caliper LabChip electrophoretic separation of fluoresceinated peptide substrate and product); type: biochemical; conditions: 200 pM CK1ε, 50 μM ATP, 1.5 μM peptide, 22 hours at room temperature
Method in brief: (§1)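 Reactions ran 22 hours at room temperature and were stopped with EDTA. Phosphorylated product and unphosphorylated substrate were then separated electrophoretically. Compounds were tested at eleven concentrations, and IC50 values came from non-linear regression.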

CK1δ = CK1δ (Homo sapiens, UniProt P48730); test: CK1δ kinase assay (Caliper LabChip electrophoretic separation of fluoresceinated peptide substrate and product); type: biochemical; conditions: 200 pM CK1δ, 50 μM ATP, 1.5 μM peptide, 22 hours at room temperature
Method in brief: as §1

Sequence of CK1ε (P49674 whole entry): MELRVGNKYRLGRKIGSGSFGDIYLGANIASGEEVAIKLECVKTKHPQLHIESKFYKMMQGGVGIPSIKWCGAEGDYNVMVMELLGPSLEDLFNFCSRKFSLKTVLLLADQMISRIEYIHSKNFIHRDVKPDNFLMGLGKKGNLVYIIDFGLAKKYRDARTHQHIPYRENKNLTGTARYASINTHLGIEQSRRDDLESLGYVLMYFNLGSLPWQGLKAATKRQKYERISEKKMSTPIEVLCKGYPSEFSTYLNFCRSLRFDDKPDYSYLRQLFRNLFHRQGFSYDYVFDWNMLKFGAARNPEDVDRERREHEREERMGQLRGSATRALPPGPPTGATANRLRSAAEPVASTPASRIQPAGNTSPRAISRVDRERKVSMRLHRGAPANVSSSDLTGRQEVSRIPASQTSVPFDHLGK
Sequence of CK1δ (P48730 whole entry): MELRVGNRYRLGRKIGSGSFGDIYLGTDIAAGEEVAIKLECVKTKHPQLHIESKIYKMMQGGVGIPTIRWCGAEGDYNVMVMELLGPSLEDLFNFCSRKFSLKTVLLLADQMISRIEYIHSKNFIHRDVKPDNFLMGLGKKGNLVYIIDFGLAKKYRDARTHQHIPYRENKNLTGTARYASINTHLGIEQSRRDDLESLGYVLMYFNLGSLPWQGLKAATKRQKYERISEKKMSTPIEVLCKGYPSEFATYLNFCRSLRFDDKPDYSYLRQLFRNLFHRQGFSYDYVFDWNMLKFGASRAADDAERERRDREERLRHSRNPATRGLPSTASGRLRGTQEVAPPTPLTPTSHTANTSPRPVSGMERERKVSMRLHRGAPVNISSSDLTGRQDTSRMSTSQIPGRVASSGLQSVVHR

SMILES | IC50 (CK1ε; read-out: CK1ε IC50 range) | IC50 (CK1δ; read-out: CK1δ IC50 range) | IC50 (CK1ε; read-out: CK1ε) | IC50 (CK1δ; read-out: CK1δ)
CC(C)(C)NC(=O)N1CCn2nc(-c3ccc4scnc4c3)c(C(N)=O)c2C1 [Compound 149, 2-(Benzo[d]thiazol-5-yl)-N^5-(tert-butyl)-6,7-dihydropyrazolo[1,5-a] pyrazine-3,5(4H)-dicarboxamide] | 100 to 2000 nM | 10 to 100 nM |  | 
CC(C)(C)NC(=O)N1CCn2nc(-c3cc(F)ccc3F)c(C(N)=O)c2C1 [Compound 151, N^5-(tert-Butyl)-2-(2,5-difluorophenyl)-6,7-dihydropyrazolo[1,5-a] pyrazine-3,5(4H)-dicarboxamide] | 100 to 2000 nM | 100 to 2000 nM | 179 nM | 122 nM
Cn1cc(-c2nn3c(c2C(N)=O)CN(C(=O)NC(C)(C)C)CC3)cn1 [Compound 153, N^5-(tert-Butyl)-2-(1-methyl-1H-pyrazol-4-yl)-6,7-dihydropyrazolo[1,5-a] pyrazine-3,5(4H)-dicarboxamide] | 100 to 2000 nM | 100 to 2000 nM |  | 
CC(C)(C)NC(=O)N1CCn2nc(-c3cc(Cl)cc(C#N)c3)c(C(N)=O)c2C1 [Compound 154, N^5-(tert-Butyl)-2-(3-chloro-5-cyanophenyl)-6,7-dihydropyrazolo[1,5-a] pyrazine-3,5(4H)-dicarboxamide] | 10 to 100 nM | 10 to 100 nM | 27.7 nM | 24.3 nM
CC(C)(C)NC(=O)N1CCn2nc(-c3cc(F)cc(C(F)(F)F)c3)c(C(N)=O)c2C1 [Compound 155, N^5-(tert-Butyl)-2-(3-fluoro-5-(trifluoromethyl)phenyl)-6,7-dihydropyrazolo[1,5-a] pyrazine-3,5(4H)-dicarboxamide] | 100 to 2000 nM | 100 to 2000 nM |  | 
N#Cc1ccc(NC(=O)N2CCn3nc(-c4cccc(Cl)c4)c(C(N)=O)c3C2)cc1C(F)(F)F [Compound 159, 2-(3-Chlorophenyl)-N^5-(4-cyano-3-(trifluoromethyl)phenyl)-6,7-dihydropyrazolo [1,5-a]pyrazine-3,5(4H)-dicarboxamide] | 0.01 to 10 nM | 0.01 to 10 nM |  | 
NC(=O)c1c(-c2cccc(Cl)c2)nn2c1CN(C(=O)Nc1ccc(OC(F)(F)F)cc1)CC2 [Compound 162, 2-(3-Chlorophenyl)-N^5-(4-(trifluoromethoxy)phenyl)-6,7-dihydropyrazolo[1,5-a]pyrazine-3,5(4H)-dicarboxamide] | 0.01 to 10 nM | 0.01 to 10 nM |  | 
N#Cc1ccc(NC(=O)N2CCn3nc(-c4cccc(Cl)c4)c(C(N)=O)c3C2)cc1 [Compound 166, 2-(3-Chlorophenyl)-N^5-(4-cyanophenyl)-6,7-dihydropyrazolo[1,5-a]pyrazine-3,5(4H)-dicarboxamide] | 0.01 to 10 nM | 0.01 to 10 nM | 0.3 nM | 0.3 nM
NC(=O)c1c(-c2cccc(Cl)c2)nn2c1CN(C(=O)Nc1ccc(C(F)(F)F)cc1)CC2 [Compound 168, 2-(3-Chlorophenyl)-N^5-(4-(trifluoromethyl)phenyl)-6,7-dihydropyrazolo[1,5-a]pyrazine-3,5(4H)-dicarboxamide] | 0.01 to 10 nM | 0.01 to 10 nM |  | 
CC(C)(NC(=O)N1CCn2nc(-c3cccc(Cl)c3)c(C(N)=O)c2C1)C(F)F [Compound 172, 2-(3-Chlorophenyl)-N^5-(1,1-difluoro-2-methylpropan-2-yl)-6,7-dihydropyrazolo[1,5-a] pyrazine-3,5(4H)-dicarboxamide] | 0.01 to 10 nM | 0.01 to 10 nM |  | 
CC(C)(NC(=O)N1CCn2nc(-c3cccc(Cl)c3)c(C(N)=O)c2C1)c1ccc(C#N)cc1 [Compound 173, 2-(3-Chlorophenyl)-N^5-(2-(4-cyanophenyl)propan-2-yl)-6,7-dihydropyrazolo[1,5-a] pyrazine-3,5(4H)-dicarboxamide] | 0.01 to 10 nM | 0.01 to 10 nM |  | 
NC(=O)c1c(-c2cccc(Cl)c2)nn2c1CN(C(=O)N[C@H]1C[C@H](F)C1)CC2 [Compound 175, 2-(3-Chlorophenyl)-N^5-((1r,3r)-3-fluorocyclobutyl)-6,7-dihydropyrazolo[1,5-a] pyrazine-3,5(4H)-dicarboxamide] | 0.01 to 10 nM | 0.01 to 10 nM |  | 
NC(=O)c1c(-c2cccc(Cl)c2)nn2c1CN(C(=O)N[C@H]1C[C@@H](F)C1)CC2 [Compound 176, 2-(3-Chlorophenyl)-N^5-((1s,3s)-3-fluorocyclobutyl)-6,7-dihydropyrazolo[1,5-a] pyrazine-3,5(4H)-dicarboxamide] | 0.01 to 10 nM | 0.01 to 10 nM |  | 
CO[C@H]1C[C@@H](NC(=O)N2CCn3nc(-c4cccc(Cl)c4)c(C(N)=O)c3C2)C1 [Compound 177, 2-(3-Chlorophenyl)-N^5-((1s,3s)-3-methoxycyclobutyl)-6,7-dihydropyrazolo[1,5-a] pyrazine-3,5(4H)-dicarboxamide] | 0.01 to 10 nM | 0.01 to 10 nM |  | 
CO[C@H]1C[C@H](NC(=O)N2CCn3nc(-c4cccc(Cl)c4)c(C(N)=O)c3C2)C1 [Compound 178, 2-(3-Chlorophenyl)-N^5-((1r,3r)-3-methoxycyclobutyl)-6,7-dihydropyrazolo [1,5-a]pyrazine-3,5(4H)-dicarboxamide] | 0.01 to 10 nM | 0.01 to 10 nM |  | 
NC(=O)c1c(-c2cccc(Cl)c2)nn2c1CN(C(=O)NCC1CC(F)(F)C1)CC2 [Compound 179, 2-(3-Chlorophenyl)-N^5-((3,3-difluorocyclobutyl)methyl)-6,7-dihydropyrazolo[1,5-a]pyrazine-3,5(4H)-dicarboxamide] | 0.01 to 10 nM | 0.01 to 10 nM |  | 
NC(=O)c1c(-c2cccc(Cl)c2)nn2c1CN(C(=O)NCC1CCC(F)(F)CC1)CC2 [Compound 180, 2-(3-Chlorophenyl)-N^5-((4,4-difluorocyclohexyl)methyl)-6,7-dihydropyrazolo[1,5-a]pyrazine-3,5(4H)-dicarboxamide] | 0.01 to 10 nM | 0.01 to 10 nM |  | 
NC(=O)c1c(-c2cccc(Cl)c2)nn2c1CN(C(=O)NC1CC3(CC3)C1)CC2 [Compound 181, 2-(3-Chlorophenyl)-N^5-(spiro[2.3]hexan-5-yl)-6,7-dihydropyrazolo[1,5-a]pyrazine-3,5(4H)-dicarboxamide] | 0.01 to 10 nM | 0.01 to 10 nM |  | 
NC(=O)c1c(-c2cccc(Cl)c2)nn2c1CN(C(=O)NC1CC3(C1)CC(F)(F)C3)CC2 [Compound 182, 2-(3-Chlorophenyl)-N^5-(6,6-difluorospiro[3.3]heptan-2-yl)-6,7-dihydropyrazolo[1,5-a] pyrazine-3,5(4H)-dicarboxamide] | 0.01 to 10 nM | 0.01 to 10 nM |  | 
NC(=O)c1c(-c2cccc(Cl)c2)nn2c1CN(C(=O)N[C@@H]1C[C@@H]3[C@H](C1)C3(F)F)CC2 [Compound 183, 2-(3-Chlorophenyl)-N^5-((1R,3s,5S)-6,6-difluorobicyclo[3.1.0]hexan-3-yl)-6,7-dihydropyrazolo[1,5-a]pyrazine-3,5(4H)-dicarboxamide] | 0.01 to 10 nM | 0.01 to 10 nM |  | 
NC(=O)c1c(-c2cccc(Cl)c2)nn2c1CN(C(=O)N[C@H]1C[C@@H]3[C@H](C1)C3(F)F)CC2 [Compound 184, 2-(3-Chlorophenyl)-N^5-((1R,3r,5S)-6,6-difluorobicyclo[3.1.0]hexan-3-yl)-6,7-dihydropyrazolo[1,5-a]pyrazine-3,5(4H)-dicarboxamide] | 0.01 to 10 nM | 0.01 to 10 nM |  | 
CC(C)(NC(=O)N1CCn2nc(-c3ccc(F)c(Cl)c3)c(C(N)=O)c2C1)C(F)F [Compound 185, 2-(3-Chloro-4-fluorophenyl)-N^5-(1,1-difluoro-2-methylpropan-2-yl)-6,7-dihydropyrazolo[1,5-a]pyrazine-3,5(4H)-dicarboxamide] | 0.01 to 10 nM | 0.01 to 10 nM |  | 
CC(C)(CC#N)NC(=O)N1CCn2nc(-c3ccc(F)c(Cl)c3)c(C(N)=O)c2C1 [Compound 186, 2-(3-Chloro-4-fluorophenyl)-N^5-(1-cyano-2-methylpropan-2-yl)-6,7-dihydropyrazolo [1,5-a]pyrazine-3,5(4H)-dicarboxamide] | 0.01 to 10 nM | 0.01 to 10 nM |  | 
CC(C)(NC(=O)N1CCn2nc(-c3ccc(F)c(Cl)c3)c(C(N)=O)c2C1)c1ccc(C#N)cc1 [Compound 187, 2-(3-Chloro-4-fluorophenyl)-N^5-(2-(4-cyanophenyl)propan-2-yl)-6,7-dihydropyrazolo [1,5-a]pyrazine-3,5(4H)-dicarboxamide] | 0.01 to 10 nM | 0.01 to 10 nM |  | 
CC(F)(F)C(C)(C)NC(=O)N1CCn2nc(-c3ccc(F)c(Cl)c3)c(C(N)=O)c2C1 [Compound 188, 2-(3-Chloro-4-fluorophenyl)-N^5-(3,3-difluoro-2-methylbutan-2-yl)-6,7-dihydropyrazolo[1,5-a] pyrazine-3,5(4H)-dicarboxamide] | 0.01 to 10 nM | 0.01 to 10 nM |  | 
NC(=O)c1c(-c2ccc(F)c(Cl)c2)nn2c1CN(C(=O)N[C@H]1C[C@H](F)C1)CC2 [Compound 189, 2-(3-Chloro-4-fluorophenyl)-N^5-((1r,3r)-3-fluorocyclobutyl)-6,7-dihydropyrazolo[1,5-a] pyrazine-3,5(4H)-dicarboxamide] | 0.01 to 10 nM | 0.01 to 10 nM |  | 
NC(=O)c1c(-c2ccc(F)c(Cl)c2)nn2c1CN(C(=O)N[C@H]1C[C@@H](F)C1)CC2 [Compound 190, 2-(3-Chloro-4-fluorophenyl)-N^5-((1s,3s)-3-fluorocyclobutyl)-6,7-dihydropyrazolo[1,5-a] pyrazine-3,5(4H)-dicarboxamide] | 0.01 to 10 nM | 0.01 to 10 nM |  | 
NC(=O)c1c(-c2ccc(F)c(Cl)c2)nn2c1CN(C(=O)NCC1CC(F)(F)C1)CC2 [Compound 193, 2-(3-Chloro-4-fluorophenyl)-N^5-((3,3-difluorocyclobutyl)methyl)-6,7-dihydropyrazolo[1,5-a] pyrazine-3,5(4H)-dicarboxamide] | 0.01 to 10 nM | 0.01 to 10 nM |  | 
